{"source": "patent US20130178616A1", "about": "“USE OF MODIFIED OLIGO-B-(1,3)-GLUCANES FOR TREATING DISEASES OF THE IMMUNE SYSTEM OLIGO-B-(1,3V-GLUCANE-(1,3)-MANNOSE, OLIGO-B-(1,3)-GLUCANE-(1,3)-MANNITOL AND DERIVATIVES THEREOF, METHODS FOR PREPARING THE SAME AND DRUGS CONTAINING THEM” (ASE & BIO., priority 2006, published 2013)", "type_in_all_cases": "in vivo, Balb/c mice", "key": {"peripheral blood cells [1]": {"tested_on": "peripheral blood cells", "experiment": "Phagocytosis of HEMA particles by peripheral blood cells after injection of the oligosaccharide", "conditions": "100 μg/mouse by peritoneal route, 24 hours after injection, control PBS, cells with at least three HEMA particles positive, FIG. 1", "experimental": "(§1) The control used is PBS. The dosages used are 100 μg/mouse.\n(§2) One or other of a control, LAM5, LAM7, A0 or A2O were injected, by peritoneal route, into a group of Balb/c mice (Jackson laboratory, Bar Harbor, Me., USA). 24 hours after the injection the mice were sacrificed. The peripheral blood was recovered from the orbital plexus in heparin (5 IU/ml) (Sigma).\nAfter counting, a test for phagocytosis of HEMA particles (synthetic microspheres prepared from 2-hydroxyethylmethacrylate copolymer) was carried out as described in: Rembaum et al., 1976, Vetvicka et al. 1982, Bilej et al., 1989. 0.1 ml of heparinized fresh blood was added to 0.05 ml of diluted HEMA particles (5×10^8/ml) and incubated for 60 minutes at 37° C. under occasional moderate stirring.\nAt the end of the incubation, the cell suspension was smeared onto microscope slides. The smears were evaluated under an optical microscope after Giemsa staining.\nCells surrounding at least three particles were considered to be positive."}, "peritoneal cells [2]": {"tested_on": "peritoneal cells", "experiment": "Differential count in the peritoneal cells", "conditions": "100 μg/mouse, same groups as Example 8; Giemsa staining; control PBS; FIG. 4", "experimental": "as §1\nBy using the same experimental groups as in Example 8, two additional microscope slides of each experimental sample were prepared. After Giemsa staining, the presence of individual types of cells i.e. macrophages, lymphocytes and mastocytes were evaluated for each slide with an optical microscope."}, "peripheral blood cells [3]": {"tested_on": "peripheral blood cells", "experiment": "Differential count in the blood", "conditions": "100 μg/mouse, same groups as Example 8; Giemsa staining; control PBS; FIG. 3", "experimental": "as §1, §2\nBy using the same experimental groups as in Example 8, two additional microscope slides were prepared from each experimental sample. After Giemsa staining, the presence of individual types of cells i.e. monocytes, lymphocytes and granulocytes were evaluated for each slide with an optical microscope."}, "peritoneal cells [4]": {"tested_on": "peritoneal cells", "experiment": "Phagocytosis of HEMA particles by cells obtained from the peritoneal cavity after injection of the oligosaccharide", "conditions": "100 μg/mouse intraperitoneal, after 24 hours, control PBS, cells with at least six HEMA particles positive, FIG. 2", "experimental": "as §1\nOne or other of a control, LAM7, LAM5, A0 or A2 were injected, by intraperitoneal route, into a group of Balb/c mice (Jackson laboratory, Bar Harbor, Me., USA).\nAfter 24 hours, the mice were sacrificed, the peritoneal cells were collected in a Hanks medium (Sigma).\nAfter counting of the cells in a haemocytometer, the peritoneal cells were diluted to 1×10^7 in an RPMI 1640 medium (Sigma) with 5% foetal calf serum (Hyclone, Logan, Utah, USA). 2×10^6 cells in 0.2 ml of RPMI 1640 medium with 5% foetal calf serum added were mixed with the same volume of HEMA particles (5×10^8/ml).\nThe suspension was incubated for 60 minutes at 37° C. under occasional moderate stirring. The incubation was stopped by centrifugation (150 g for 5 minutes) and the pellet was replaced in suspension.\nThe macrophages with ingested particles were counted under an optical microscope in smears stained with Accustain (modified Wright stain, Sigma).\nThe cells surrounding at least six particles were considered as being positive."}}, "data": [{"smiles": "OC[C@H]1O[C@@H](O[C@@H]2[C@@H](O)[C@H](O[C@@H]3[C@@H](O)[C@H](O[C@@H]4[C@@H](O)[C@H](O[C@@H]5[C@@H](O)[C@H](O[C@@H]6[C@H](O)[C@H](O)O[C@H](CO)[C@H]6O)O[C@H](CO)[C@H]5O)O[C@H](CO)[C@H]4O)O[C@H](CO)[C@H]3O)O[C@H](CO)[C@H]2O)[C@H](O)[C@@H](O)[C@@H]1O", "note": "[Product A2, β-D-glucopyranosyl-(1→3)-β-D-glucopyranosyl-(1→3)-β-D-glucopyranosyl-(1→3)-β-D-glucopyranosyl-(1→3)-β-D-glucopyranosyl-(1→3)-β-D-mannopyranose]", "values": [{"measurement": "phagocytosis in the granulocytes", "setting": "peripheral blood cells [1]", "result": "strongly stimulate phagocytosis"}, {"measurement": "phagocytosis in the monocytes", "setting": "peripheral blood cells [1]", "result": "strongly stimulate phagocytosis"}, {"measurement": "number of granulocytes in the peritoneal cavity", "setting": "peritoneal cells [2]", "result": "increase the number"}, {"measurement": "number of monocytes in the peritoneal cavity", "setting": "peritoneal cells [2]", "result": "increase the number"}, {"measurement": "number of granulocytes in the peripheral blood", "setting": "peripheral blood cells [3]", "result": "increase the number"}, {"measurement": "number of monocytes in the peripheral blood", "setting": "peripheral blood cells [3]", "result": "increase the number"}, {"measurement": "phagocytosis in the granulocytes of peritoneal macrophages", "setting": "peritoneal cells [4]", "result": "strongly stimulate phagocytosis"}, {"measurement": "phagocytosis in the monocytes of peritoneal macrophages", "setting": "peritoneal cells [4]", "result": "strongly stimulate phagocytosis"}]}]}
